The numbers were not newly measured in patent US20230201369A1 (THE TEXAS A&M UNIVERSITY SYSTEM, priority 2020, published 2023), which cites them from elsewhere.

For the data set the following is noted: estimated.

As for `C=CCN1CC[C@]23c4c5ccc(O)c4O[C@H]2C(=O)CC[C@@]3(O)[C@H]1C5` [naloxone, 17-Allyl-4,5α-epoxy-3,14-dihydroxymorphinan-6-one], the oral bioavailability is recorded as 0.9-2%.
